Laboratory results: PubChem BioAssay AID1963863 (Molecular Pharmacology Branch, DTP, NCI, 2024)
pIC50: −log10 of the molar value.

Test system: 931267-113-T-J1-PDC KRAS spheroid with HUVEC/MSC, viability
Assay: Anticancer human tumor 931267-113-T-J1-PDC patient-derived colon adenocarcinoma cell line growth inhibition [KRAS2]
Conditions: for pIC50: curve of first compound; for viability, T/C: stronger effect = lower value; active means viability on the fitted dose curve at most 10% of control; inactive means the rest
Summary of the method: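 Combination screen of spheroid viability in tumor-cell co-cultures with endothelial (HUVEC) and mesenchymal stem cell stroma. Each agent was tested in half-log dilutions, topping at clinical Cmax or at 10 microM without a known Cmax.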

[1] = second compound 0.1 µM, first compound 0.0316 µM
[2] = second compound 0.1 µM, first compound 0.1 µM
[3] = second compound 0.316 µM, first compound 0.0316 µM
[4] = second compound 0.316 µM, first compound 0.1 µM
[5] = second compound 1 µM, first compound 0.0316 µM
[6] = second compound 1 µM, first compound 0.1 µM
[7] = second compound 3.16 µM, first compound 0.0316 µM
[8] = second compound 3.16 µM, first compound 0.1 µM
[9] = second compound 0.1 µM, first compound 0.000316 µM
[10] = second compound 0.1 µM, first compound 0.001 µM
[11] = second compound 0.1 µM, first compound 0.00316 µM
[12] = second compound 0.1 µM, first compound 0.01 µM
[13] = second compound 0.316 µM, first compound 0.000316 µM
[14] = second compound 0.316 µM, first compound 0.001 µM
[15] = second compound 0.316 µM, first compound 0.00316 µM
[16] = second compound 0.316 µM, first compound 0.01 µM
[17] = second compound 1 µM, first compound 0.000316 µM
[18] = second compound 1 µM, first compound 0.001 µM
[19] = second compound 1 µM, first compound 0.00316 µM
[20] = second compound 1 µM, first compound 0.01 µM
[21] = second compound 3.16 µM, first compound 0.000316 µM
[22] = second compound 3.16 µM, first compound 0.001 µM
[23] = second compound 3.16 µM, first compound 0.00316 µM
[24] = second compound 3.16 µM, first compound 0.01 µM
[25] = second compound 10 µM, first compound 0.000316 µM
[26] = second compound 10 µM, first compound 0.001 µM
[27] = second compound 10 µM, first compound 0.00316 µM
[28] = second compound 10 µM, first compound 0.01 µM
[29] = second compound 10 µM, first compound 0.0316 µM
[30] = second compound 10 µM, first compound 0.1 µM
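Further: compound exposure lasted 7 days before the readout.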
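Wherever viability, T/C is given: 100% = DMSO vehicle control viability.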

COc1cc2nccc(Oc3ccc(NC(=O)C4(C(=O)Nc5ccc(F)cc5)CC4)cc3)c2cc1OC + C=CC(=O)N1CCN(c2nc(OCC3CCCN3C)nc3c2CCN(c2cccc4cccc(C)c24)C3)CC1CC#N
inactive: viability, T/C (second compound 0.0316 µM, first compound 0.0316 µM) 107% | viability, T/C (second compound 0.0316 µM, first compound 0.1 µM) 98.3% | viability, T/C (second compound 0.0316 µM, first compound 0.316 µM) 95.2% | viability, T/C (second compound 0.0316 µM, first compound 1 µM) 98.7% | viability, T/C (second compound 0.0316 µM, first compound 3.16 µM) 64.7% | viability, T/C (second compound 0.0316 µM, first compound 10 µM) 59.5% | viability, T/C [1] 107% | viability, T/C [2] 97.9% | viability, T/C (second compound 0.1 µM, first compound 0.316 µM) 106% | viability, T/C (second compound 0.1 µM, first compound 1 µM) 104% | viability, T/C (second compound 0.1 µM, first compound 3.16 µM) 66.6% | viability, T/C (second compound 0.1 µM, first compound 10 µM) 50.9% | viability, T/C [3] 108% | viability, T/C [4] 119% | viability, T/C (second compound 0.316 µM, first compound 0.316 µM) 108% | viability, T/C (second compound 0.316 µM, first compound 1 µM) 110% | viability, T/C (second compound 0.316 µM, first compound 3.16 µM) 71.9% | viability, T/C (second compound 0.316 µM, first compound 10 µM) 51.8% | viability, T/C [5] 92.3% | viability, T/C [6] 101% | viability, T/C (second compound 1 µM, first compound 0.316 µM) 92.8% | viability, T/C (second compound 1 µM, first compound 1 µM) 104% | viability, T/C (second compound 1 µM, first compound 3.16 µM) 37% | viability, T/C (second compound 1 µM, first compound 10 µM) 15.6% | viability, T/C [7] 16.2%
5.61: pIC50 (second compound 1 µM)
< 5.00: pIC50 (second compound 0.0316 µM) | pIC50 (second compound 0.1 µM) | pIC50 (second compound 0.316 µM)
> 7.50: pIC50 (second compound 3.16 µM)
active: viability, T/C [8] 13.8% | viability, T/C (second compound 3.16 µM, first compound 0.316 µM) 0.57% | viability, T/C (second compound 3.16 µM, first compound 1 µM) 0.23% | viability, T/C (second compound 3.16 µM, first compound 3.16 µM) 2.35% | viability, T/C (second compound 3.16 µM, first compound 10 µM) 0.23%

CC(C)n1nc(-c2ccc3oc(N)nc3c2)c2c(N)ncnc21 + C=CC(=O)N1CCN(c2nc(=O)n(-c3c(C)ccnc3C(C)C)c3nc(-c4c(O)cccc4F)c(F)cc23)C(C)C1
8.08: pIC50 (second compound 10 µM)
8.10: pIC50 (second compound 1 µM)
8.04: pIC50 (second compound 0.316 µM)
inactive: viability, T/C [9] 106% | viability, T/C [10] 89.4% | viability, T/C [11] 83.5% | viability, T/C [12] 48.2% | viability, T/C [1] 34.3% | viability, T/C [2] 26.7% | viability, T/C [13] 116% | viability, T/C [14] 75.7% | viability, T/C [15] 77.4% | viability, T/C [16] 44.8% | viability, T/C [3] 33.6% | viability, T/C [4] 27.2% | viability, T/C [17] 100% | viability, T/C [18] 117% | viability, T/C [19] 87.6% | viability, T/C [20] 41.2% | viability, T/C [5] 27.9% | viability, T/C [6] 25.1% | viability, T/C [21] 108% | viability, T/C [22] 94.4% | viability, T/C [23] 95.6% | viability, T/C [24] 47.1% | viability, T/C [7] 28.9% | viability, T/C [8] 22.3% | viability, T/C [25] 101% | viability, T/C [26] 86.4% | viability, T/C [27] 69.7% | viability, T/C [28] 48.4% | viability, T/C [29] 25.1% | viability, T/C [30] 22%
8.02: pIC50 (second compound 3.16 µM)
7.97: pIC50 (second compound 0.1 µM)

CC(C)n1nc(-c2ccc3oc(N)nc3c2)c2c(N)ncnc21 + CC1OCC2(CCN(c3cnc(Sc4ccnc(N)c4Cl)c(N)n3)CC2)C1N
8.44: pIC50 (second compound 3.16 µM)
8.15: pIC50 (second compound 10 µM)
8.36: pIC50 (second compound 0.1 µM)
inactive: viability, T/C [9] 90% | viability, T/C [10] 81.6% | viability, T/C [11] 49.5% | viability, T/C [12] 42.8% | viability, T/C [1] 27.6% | viability, T/C [2] 26.1% | viability, T/C [13] 85.2% | viability, T/C [14] 76.3% | viability, T/C [15] 44.7% | viability, T/C [16] 34.9% | viability, T/C [3] 19.9% | viability, T/C [4] 16.7% | viability, T/C [17] 79.7% | viability, T/C [18] 66.9% | viability, T/C [19] 51.3% | viability, T/C [20] 36.8% | viability, T/C [5] 25.7% | viability, T/C [6] 18.7% | viability, T/C [21] 68.4% | viability, T/C [22] 64.1% | viability, T/C [23] 46.1% | viability, T/C [24] 43.9% | viability, T/C [7] 27% | viability, T/C [8] 15.6% | viability, T/C [25] 66.5% | viability, T/C [26] 77.7% | viability, T/C [27] 62.2% | viability, T/C [28] 45.3% | viability, T/C [29] 19.9% | viability, T/C [30] 22.5%
8.50: pIC50 (second compound 0.316 µM)
8.45: pIC50 (second compound 1 µM)
